According to PMC11200585, “Prospects for Prostate Cancer Chemotherapy: Cytotoxic Evaluation and Mechanistic Insights of Quinolinequinones with ADME/PK Profile” (Biomedicines, 2024):

Columns and labels:
Type in all cases: cell-based, human
HCC-2998 = assay: NCI-60 one-dose screen (colon cancer); conditions: 10 µM single dose; for GP (growth percentage): 48 h
Protocol: (§1) The obtained quinolinequinones were submitted to NCI, Bethesda, USA, and, as per standard protocol of NCI, all compounds were evaluated for their antiproliferative activity at single-dose assay (10 µM concentration in DMSO) on a panel of 60 cancer cell lines derived from leukemia, non-small-cell lung, colon, CNS, melanoma, ovarian, renal, prostate, and breast, as per protocol. Tested compounds were added to the microtiter culture plates followed by incubation for 48 h at 37 °C. Sulforhodamine B (SRB), a protein-binding dye, is used for endpoint determination. The percent of the growth of the treated cells was determined in comparison to the untreated control cells and the results of each tested compound were reported. Data from one-dose experiments pertain to the percentage growth at 10 μM [16, 17, 18].

HCT-116 = assay: NCI-60 one-dose screen (colon cancer); conditions: 10 µM single dose, 48 h
Protocol: as §1

KM12 = assay: NCI-60 one-dose screen (colon cancer); conditions: 10 µM single dose, 48 h
Protocol: as §1

HCT-15 = assay: NCI-60 one-dose screen (colon cancer); conditions: 10 µM single dose, 48 h
Protocol: as §1

SW-620 = assay: NCI-60 one-dose screen (colon cancer); conditions: 10 µM single dose, 48 h
Protocol: as §1

HT29 = assay: NCI-60 one-dose screen (colon cancer); conditions: for GP (growth percentage): 10 µM single dose, 48 h
Protocol: as §1

COLO 205 = assay: NCI-60 one-dose screen (colon cancer); conditions: 10 µM single dose, 48 h
Protocol: as §1

NCI-H23 = assay: NCI-60 five-dose assay (non-small cell lung cancer); conditions: 48 h, SRB; for GI50 / CC50: Homo sapiens; for CC50: read-out: LC50 (the source's name)
MDA-MB-468 = assay: NCI-60 five-dose assay (breast cancer); conditions: 48 h, SRB; for GI50 / LC50: Homo sapiens
SN12C [1] = assay: NCI-60 five-dose assay (renal cancer); conditions: 48 h, SRB; for GI50 / LC50 (concentration killing 50% of starting cells): Homo sapiens
UO-31 [2] = assay: NCI-60 five-dose assay (renal cancer); conditions: 48 h, SRB; for GI50 / LC50 (lethal concentration 50%): Homo sapiens
MDA-MB-435 = assay: NCI-60 five-dose assay (melanoma); conditions: 48 h, SRB; for GI50 / CC50: Homo sapiens; for CC50: read-out: LC50 (the source's name)
MCF7 = assay: NCI-60 five-dose assay (breast cancer); conditions: 48 h, SRB
SNB-75 = assay: NCI-60 five-dose assay (CNS cancer); conditions: 48 h, SRB; for GI50 / LC50 (50% lethal concentration): Homo sapiens
PC-3 = assay: NCI-60 five-dose assay (prostate cancer); conditions: 48 h, SRB; for GI50 / CC50: Homo sapiens; for CC50: read-out: LC50 (the source's name)
HL-60(TB) [3] = assay: NCI-60 five-dose assay (leukemia); conditions: 48 h, SRB; for GI50 / CC50: Homo sapiens; for CC50: read-out: LC50 (the source's name)
U251 = assay: NCI-60 five-dose assay (CNS cancer); conditions: SRB; for TGI: 48 h; for GI50 / LC50 (concentration killing 50% of cells): Homo sapiens, U-251, 48 h
BT-549 = assay: NCI-60 one-dose screen (breast cancer); conditions: 10 µM single dose, 48 h
Protocol: as §1

A498 = assay: NCI-60 one-dose screen (renal cancer); conditions: 10 µM single dose, 48 h
Protocol: as §1

ACHN = assay: NCI-60 one-dose screen (renal cancer); conditions: 10 µM single dose, 48 h
Protocol: as §1

SN12C [4] = assay: NCI-60 one-dose screen (renal cancer); conditions: 10 µM single dose, 48 h
Protocol: as §1

UO-31 [5] = assay: NCI-60 one-dose screen (renal cancer); conditions: 10 µM single dose, 48 h
Protocol: as §1

786-0 [6] = assay: NCI-60 one-dose screen (renal cancer); conditions: 10 µM single dose, 48 h
Protocol: as §1

TK-10 [7] = assay: NCI-60 one-dose screen (renal cancer); conditions: 10 µM single dose, 48 h
Protocol: as §1

NCI-H522 = assay: NCI-60 five-dose assay (non-small cell lung cancer); conditions: 48 h, SRB; for GI50 / LC50: Homo sapiens
UACC-257 = assay: NCI-60 five-dose assay (melanoma); conditions: 48 h, SRB; for GI50 / LC50 (NCI-60 lethal concentration, 50% cell kill): Homo sapiens
K-562 = assay: NCI-60 one-dose screen (leukemia); conditions: for GP (growth percentage): 10 µM single dose, 48 h
Protocol: as §1

CCRF-CEM = assay: NCI-60 one-dose screen (leukemia); conditions: 10 µM single dose, 48 h
Protocol: as §1

RPMI-8226 = assay: NCI-60 one-dose screen (leukemia); conditions: 10 µM single dose, 48 h
Protocol: as §1

SR = assay: NCI-60 one-dose screen (leukemia); conditions: 10 µM single dose, 48 h
Protocol: as §1

MOLT-4 = assay: NCI-60 one-dose screen (leukemia); conditions: 10 µM single dose, 48 h
Protocol: as §1

HL-60(TB) [8] = assay: NCI-60 one-dose screen (leukemia); conditions: 10 µM single dose, 48 h
Protocol: as §1

786-0 [9] = assay: NCI-60 five-dose assay (renal cancer); conditions: 48 h, SRB; for GI50 / LC50: Homo sapiens
TK-10 [10] = assay: NCI-60 five-dose assay (renal cancer); conditions: 48 h, SRB; for GI50 / LC50 (concentration killing 50% of starting cells): Homo sapiens
EKVX = assay: NCI-60 five-dose assay (non-small cell lung cancer); conditions: 48 h, SRB; for GI50 / CC50: Homo sapiens; for CC50: read-out: LC50 (the source's name)
SF-539 = assay: NCI-60 five-dose assay (CNS cancer); conditions: 48 h, SRB; for GI50 / LC50: Homo sapiens
RXF 393 = assay: NCI-60 five-dose assay (renal cancer); conditions: 48 h, SRB; for GI50 / LC50: Homo sapiens
OVCAR-4 = assay: NCI-60 five-dose assay (ovarian cancer); conditions: 48 h, SRB; for GI50 / LC50 (concentration killing 50% of cells): Homo sapiens

## COc1ccccc1NC1=C(Cl)C(=O)c2nc(C)ccc2C1=O [AQQ1]
HCC-2998
  GP (growth percentage): 58.90%
HCT-116
  GP (growth percentage): −80.64%
KM12
  GP (growth percentage): 69.40%
HCT-15
  GP (growth percentage): −47.03%
SW-620
  GP (growth percentage): −63.13%
HT29
  GP (growth percentage): 75.04%
COLO 205
  GP (growth percentage): 111.34%
NCI-H23
  TGI: 3.30 µM
  GI50: 1.47 µM
  CC50: 7.45 µM
MDA-MB-468
  TGI: 3.06 µM
  GI50: 1.52 µM
  LC50: 6.16 µM
SN12C [1]
  TGI: 3.29 µM
  GI50: 1.7 µM
  LC50 (concentration killing 50% of starting cells): 6.36 µM
UO-31 [2]
  TGI: 2.73 µM
  GI50: 1.42 µM
  LC50 (lethal concentration 50%): 5.26 µM
MDA-MB-435
  TGI: 3.11 µM
  GI50: 1.7 µM
  CC50: 5.67 µM
MCF7
  TGI: 4.49 µM
MCF7; Homo sapiens
  GI50: 1.78 µM
  LC50: > 100 µM
SNB-75
  TGI: 2.84 µM
  GI50: 1.5 µM
  LC50 (50% lethal concentration): 5.39 µM
PC-3
  TGI: 2.58 µM
  GI50: 1.21 µM
  CC50: 5.49 µM
HL-60(TB) [3]
  TGI: 3.52 µM
  GI50: 1.37 µM
  CC50: 9.03 µM
U251
  TGI: 3.73 µM
  GI50: 1.85 µM
  LC50 (concentration killing 50% of cells): 7.53 µM
BT-549
  GP (growth percentage): 83.54%
A498
  GP (growth percentage): 71.81%
ACHN
  GP (growth percentage): −99.93%
SN12C [4]
  GP (growth percentage): −49.46%
UO-31 [5]
  GP (growth percentage): −65.68%
786-0 [6]
  GP (growth percentage): 9.17%
TK-10 [7]
  GP (growth percentage): 147.78%
NCI-H522
  TGI: 3.36 µM
  GI50: 1.81 µM
  LC50: 6.24 µM
UACC-257
  TGI: 3.09 µM
  GI50: 1.57 µM
  LC50 (NCI-60 lethal concentration, 50% cell kill): 6.11 µM
K-562
  GP (growth percentage): −21.12%
CCRF-CEM
  GP (growth percentage): −4.94%
RPMI-8226
  GP (growth percentage): −30.44%
SR
  GP (growth percentage): −27.92%
MOLT-4
  GP (growth percentage): −39.00%
HL-60(TB) [8]
  GP (growth percentage): −48.05%
786-0 [9]
  TGI: 3.61 µM
  GI50: 1.91 µM
  LC50: 6.82 µM
TK-10 [10]
  TGI: 3.86 µM
  GI50: 2.34 µM
  LC50 (concentration killing 50% of starting cells): 6.36 µM
EKVX
  TGI: 3.05 µM
  GI50: 1.61 µM
  CC50: 5.78 µM
SF-539
  TGI: 3.13 µM
  GI50: 1.68 µM
  LC50: 5.81 µM
RXF 393
  TGI: 2.76 µM
  GI50: 1.42 µM
  LC50: 5.36 µM
OVCAR-4
  TGI: 2.49 µM
  GI50: 1.21 µM
  LC50 (concentration killing 50% of cells): 5.11 µM

## CCOc1ccccc1NC1=C(Cl)C(=O)c2nc(C)ccc2C1=O [AQQ2]
HCC-2998
  GP (growth percentage): 20.35%
HCC-2998; Homo sapiens
  inhibition at 10 µM: 79.7%
HCT-116
  GP (growth percentage): −79.44%
KM12
  GP (growth percentage): 60.77%
HCT-15
  GP (growth percentage): −76.56%
SW-620
  GP (growth percentage): −66.65%
HT29
  GP (growth percentage): 19.96%
HT29; Homo sapiens, HT-29, 10 µM single dose
  inhibition at 10 µM: 80%
COLO 205
  GP (growth percentage): 99.24%
NCI-H23
  TGI: 3.55 µM
  GI50: 1.44 µM
  CC50: 8.71 µM
MDA-MB-468
  TGI: 2.88 µM
  GI50: 1.45 µM
  LC50: 5.71 µM
SN12C [1]
  TGI: 3.04 µM
  GI50: 1.59 µM
  LC50 (concentration killing 50% of starting cells): 5.8 µM
UO-31 [2]
  TGI: 2.71 µM
  GI50: 1.4 µM
  LC50 (lethal concentration 50%): 5.23 µM
MDA-MB-435
  TGI: 0.671 µM
  GI50: 0.266 µM
  CC50: 2.45 µM
MCF7
  TGI: 3.65 µM
MCF7; Homo sapiens
  GI50: 1.33 µM
SNB-75
  TGI: 3.43 µM
  GI50: 1.63 µM
  LC50 (50% lethal concentration): 7.21 µM
PC-3
  TGI: 2.77 µM
  GI50: 1.26 µM
  CC50: 6.11 µM
HL-60(TB) [3]
  TGI: 2.92 µM
  GI50: 1.03 µM
  CC50: 8.29 µM
U251
  TGI: 3.27 µM
  GI50: 1.7 µM
  LC50 (concentration killing 50% of cells): 6.28 µM
BT-549
  GP (growth percentage): 44.40%
A498
  GP (growth percentage): 78.84%
ACHN
  GP (growth percentage): −99.15%
SN12C [4]
  GP (growth percentage): −50.97%
UO-31 [5]
  GP (growth percentage): −92.96%
786-0 [6]
  GP (growth percentage): −88.18%
TK-10 [7]
  GP (growth percentage): 124.08%
NCI-H522
  TGI: 3.28 µM
  GI50: 1.74 µM
  LC50: 6.18 µM
UACC-257
  TGI: 2.61 µM
  GI50: 1.28 µM
  LC50 (NCI-60 lethal concentration, 50% cell kill): 5.34 µM
K-562
  GP (growth percentage): 1.26%
K-562; Homo sapiens, K562, 10 µM single dose
  inhibition at 10 µM: 98.7%
CCRF-CEM
  GP (growth percentage): −6.33%
RPMI-8226
  GP (growth percentage): −35.12%
SR
  GP (growth percentage): −12.75%
MOLT-4
  GP (growth percentage): −24.89%
HL-60(TB) [8]
  GP (growth percentage): −36.75%
786-0 [9]
  TGI: 3.25 µM
  GI50: 1.8 µM
  LC50: 5.86 µM
TK-10 [10]
  TGI: 3.72 µM
  GI50: 2.25 µM
  LC50 (concentration killing 50% of starting cells): 6.18 µM
EKVX
  TGI: 2.98 µM
  GI50: 1.56 µM
  CC50: 5.7 µM
SF-539
  TGI: 3.09 µM
  GI50: 1.67 µM
  LC50: 5.71 µM
RXF 393
  TGI: 2.78 µM
  GI50: 1.44 µM
  LC50: 5.39 µM
OVCAR-4
  TGI: 2.22 µM
  GI50: 1 µM
  LC50 (concentration killing 50% of cells): 4.91 µM
